Publication PMC6178183, “Development of a HPLC-MS/MS Method to Determine 11 Bioactive Compounds in Tongmai Yangxin Pill and Application to a Pharmacokinetic Study in Rats” (Evidence-based Complementary and Alternative Medicine : eCAM, 2018)
“And” between values parts separate entries of the source, which are not always exact repeats. Equal values may be shown once.

Columns and labels:
[1] = parameters: method as in PMID 25943824; settings: active ingredients of TMYX with high R values; cited from earlier work
[2] = Pharmacokinetic study in rats after oral administration of TMYX extract (HPLC-MS/MS of plasma); type: in vivo, Sprague–Dawley rats; settings: rat plasma; for AUC(0-inf) / half-life / AUC / k el: male, Sprague-Dawley; for AUC: read-out: AUC (0-tn); for k el: read-out: K e (converted); for T max1: n=6, mean ± SD
Procedure: The HPLC-MS/MS system consists of an Agilent 1200 high-performance liquid chromatography coupled with an Aglient 6430 series triple quadrupole mass spectrometer with an electrospray ionization (ESI) source. The chromatographic separation was achieved on a CORTECS C18 column (4.6 mm × 150 mm, 2.7 μm), and the column temperature was kept at 30°C. Mobile phases which consisted of 0.1% formic acid in water (A) and acetonitrile (B) were used in the following gradient elution method: 0-10 min, 10%-85% B; 10-13 min, 85%-95% B; 13-19 min, 95%-95% B. The flow rate was set at 0.3 mL/min, and the injection volume was 10 μL. All data were analyzed by Mass Hunter workstation software (Agilent Technologies, USA).
The mass spectrometer was carried out in both positive and negative ionization multiple-reaction monitoring (MRM) mode. The source parameters were as follows: the capillary voltage set at 300 V for positive ionization mode and -300 V for negative ionization mode, the drying gas temperature was 320°C, the flow was 11 L/min, and nebulizing gas pressure was 30 psi.
The plasma (100 μL) was spiked with 20 μL of methanol, 20 μL of the IS (icariin, 1 μg/mL), and 20 μL of formic acid and then vortex-mixed. The mixture was extracted with 800 μL of ethyl acetate by vortex mixing for 5 min at room temperature. After centrifugation at 14,000 rpm for 10 min, the supernatant was collected to a clean tube and evaporated to dryness under a nitrogen stream. The residue was reconstituted in 50 μL of 50% methanol, vortexed for 5 min, and centrifuged at 14,000 rpm for 10 min. Finally, 10 μL supernatant was injected into the LC-MS/MS system for analysis.
Male Sprague–Dawley rats (230-250 g) were obtained from Beijing HFK Experimental Animal Technology Co., Ltd. The rats were maintained under the control environmental conditions and they fasted for 12 h with free access to water before the experiments. TMYX extracts were dissolved in CMC-Na and administrated orally to rats at 8.3 g/kg. The blood samples (200 μL) were collected from the rat fossa orbitalis vein at 0, 0.03, 0.083, 0.17, 0.25, 0.5, 1, 2, 4, 6, 8, 10, 12, 24, 36, and 48 h after oral administration to heparinized tubes. And then the blood samples were centrifuged at 7,000 rpm for 10 min to get the plasma sample immediately. Finally, the plasma obtained was stored at −70°C until analysis. Pharmacokinetic parameters were calculated by the computer program “Drug and Statistics 2.0” (DAS 2.0) (Medical College of Wannan, China).

[3] = Stability of analytes in rat plasma QC samples under storage conditions; type: in vitro ADME; settings: n=6, gallic acid, ononin, schisandrin, stilbene glycoside, liquiritigenin, rhein, verbascoside; for Measured Concentration, auto-sampler for 12 h: prepared rat plasma samples; for Measured Concentration, -70°C for 14 days / Measured Concentration, room temperature for 6 h / Measured Concentration, three freeze-thaw cycles: rat plasma
Procedure: Quality control (QC) samples at three concentrations (low, medium, and high concentration) were made up of appropriate mixed standard solutions with blank blood sample as calibration solutions to meet the required concentrations. All the solutions were kept at 4°C.
The stability of analytes in plasma samples was determined by analyzing QC samples of three concentration levels at different conditions: stored at autosampler for 12 h, at room temperature for 6 h, under three freeze-thaw cycles and stored at -70°C for 14 days. All stability studies were measured in six replicates.

[4] = oral TMYX extract 8.3 g/kg single dose, n=6
[5] = oral TMYX extract 8.3 g/kg single dose
[6] = high QC: spiked 2000 ng/mL glycyrrhizic acid, 1000 liquiritin, 200 emodin, 100 isoliquiritigenin
[7] = low QC: spiked 20 ng/mL glycyrrhizic acid, 10 liquiritin, 2 emodin, 1 isoliquiritigenin
[8] = medium QC: spiked 200 ng/mL glycyrrhizic acid, 100 liquiritin, 20 emodin, 10 isoliquiritigenin
[9] = second peak, oral TMYX extract 8.3 g/kg single dose, n=6

| Compound | AUC(0-inf) [2, 4] [ng·h/mL] | half-life [2, 4] [h] | AUC [2, 4] [ng·h/mL] | k el [2, 4] [s⁻¹] | C max1 [2, 4] [ng/mL] | T max1 [2, 5] | Measured Concentration, auto-sampler for 12 h [3, 6] [ng/mL] | Measured Concentration, auto-sampler for 12 h [3, 7] [ng/mL] | Measured Concentration, auto-sampler for 12 h [3, 8] [ng/mL] | Measured Concentration, -70°C for 14 days [3, 6] [ng/mL] | Measured Concentration, room temperature for 6 h [3, 6] [ng/mL] | Measured Concentration, three freeze-thaw cycles [3, 6] [ng/mL] | Measured Concentration, -70°C for 14 days [3, 7] [ng/mL] | Measured Concentration, room temperature for 6 h [3, 7] [ng/mL] | Measured Concentration, three freeze-thaw cycles [3, 7] [ng/mL] | Measured Concentration, -70°C for 14 days [3, 8] [ng/mL] | Measured Concentration, room temperature for 6 h [3, 8] [ng/mL] | Measured Concentration, three freeze-thaw cycles [3, 8] [ng/mL] | further results |
| --- | --- | --- | --- | --- | --- | --- | --- | --- | --- | --- | --- | --- | --- | --- | --- | --- | --- | --- | --- |
| COc1ccc(-c2coc3cc(O)ccc3c2=O)cc1 [formononetin] |  |  |  |  |  |  |  |  |  |  |  |  |  |  |  |  |  |  | antiinflammatory effects [1]: exert antiinflammatory effects in a dose-dependent manner |
| O=C(O)c1cc(O)c(O)c(O)c1 [gallic acid] | 238 ± 173 | 3.01 ± 1.35 | 215 ± 137 | 7.5e-05 | 56.9 ± 42.8 | 0.75 ± 0.67 h | 184.54 ± 2.46 | 2.03 ± 0.05 | 19.27 ± 0.35 | 199.19 ± 1.80 | 205.97 ± 2.14 | 196.77 ± 1.09 | 1.99 ± 0.04 | 1.97 ± 0.03 | 1.93 ± 0.04 | 19.26 ± 0.22 | 20.77 ± 1.09 | 20.08 ± 0.51 |  |
| COc1cc2c(c(OC)c1OC)-c1c3cc4c(c1OC[C@@H](C)[C@@](C)(O)C(=O)O[C@@H]2[C@@](C)(O)[C@@H](C)C3)OCO4 [gomisin D] |  |  |  |  |  |  |  |  |  |  |  |  |  |  |  |  |  |  | antiinflammatory effects [1]: exert antiinflammatory effects in a dose-dependent manner |
| O=C(/C=C/c1ccc(O)cc1)c1ccc(O)cc1O [isoliquiritigenin] | 436 ± 154 | 13.5 ± 8.33 | 410 ± 131 | 1.94e-05 | 41.6 ± 24.2 | 0.28 h and 0.28 ± 0.11 h | 97.47 ± 1.99 | 1.00 ± 0.02 | 9.60 ± 0.04 | 100.74 ± 2.95 | 106.11 ± 0.78 | 100.58 ± 0.91 | 0.89 ± 0.01 | 0.99 ± 0.01 | 0.89 ± 0.02 | 8.62 ± 0.04 | 10.86 ± 0.60 | 8.69 ± 0.14 | detection in vivo at 48 h ([2]; 48 h after oral TMYX extract 8.3 g/kg): can still be detected in vivo at 48 h; peaks in the mean plasma concentration-time profile ([2]; oral TMYX extract 8.3 g/kg): double peaks; C max2 [2, 9]: 24.9 ± 13.5 ng/mL; T max2 [2, 9]: 7.00 h and 7.00 ± 2.45 h |
| O=C1C[C@@H](c2ccc(O[C@@H]3O[C@H](CO)[C@@H](O)[C@H](O)[C@H]3O)cc2)Oc2cc(O)ccc21 [liquiritin] | 651 ± 220 | 2.16 ± 1.44 | 637 ± 220 | 0.000214 | 199.9 ± 120.2 | 0.50 ± 0.46 h | 869.12 ± 14.52 | 10.26 ± 0.11 | 108.02 ± 0.66 | 1021.69 ± 19.98 | 1076.07 ± 10.27 | 952.89 ± 11.22 | 10.04 ± 0.12 | 9.85 ± 0.09 | 9.26 ± 0.16 | 105.05 ± 1.73 | 108.97 ± 1.51 | 109.67 ± 1.86 |  |
| O=C(O)c1cc(O)c2c(c1)C(=O)c1cccc(O)c1C2=O [rhein] | 152 ± 61.3 | 2.84 ± 2.13 | 145 ± 52.6 | 0.000156 | 46.3 ± 15.6 | 0.36 ± 0.31 h | 97.32 ± 1.05 | 0.97 ± 0.01 | 9.86 ± 0.09 | 85.95 ± 0.39 | 101.97 ± 1.07 | 86.7 ± 1.33 | 0.95 ± 0.05 | 0.97 ± 0.02 | 0.98 ± 0.03 | 8.71 ± 0.11 | 10.23 ± 0.04 | 8.89 ± 0.08 |  |
| C[C@@H]1O[C@@H](O[C@@H]2[C@@H](O)[C@H](OCCc3ccc(O)c(O)c3)O[C@H](CO)[C@H]2OC(=O)/C=C/c2ccc(O)c(O)c2)[C@H](O)[C@H](O)[C@H]1O [verbascoside] | 61 ± 29.8 | 1.53 ± 0.67 | 51.4 ± 29.8 | 0.000156 | 23.4 ± 8.7 | 0.37 ± 0.18 h | 93.52 ± 0.27 | 1.05 ± 0.02 | 9.50 ± 0.04 | 107.40 ± 1.47 | 103.95 ± 1.33 | 108.42 ± 1.17 | 1.01 ± 0.02 | 0.92 ± 0.01 | 1.09 ± 0.01 | 9.81 ± 0.22 | 9.57 ± 0.21 | 10.17 ± 0.90 |  |
